As a reminder, the IC50 is the midpoint of a concentration-inhibition curve.

For 21 molecules, IC50 results are on record in patent US5166214A, “Use of imidazoles for the treatment of atherosclerosis” (priority 1990, dated 1992).

Read-outs that look alike come from different tables or passages of the source.

For experiment [1], the target named is T1, Acyl-CoA: Cholesterol Acyltransferase (ACAT) (Rattus norvegicus, UniProt Q7TQM4).
T1 construct: Microsomes were obtained by differential centrifugation; from tissue; host or cells: liver microsomes of male Sprague Dawley rats
T1 sequence (Q7TQM4 1-524): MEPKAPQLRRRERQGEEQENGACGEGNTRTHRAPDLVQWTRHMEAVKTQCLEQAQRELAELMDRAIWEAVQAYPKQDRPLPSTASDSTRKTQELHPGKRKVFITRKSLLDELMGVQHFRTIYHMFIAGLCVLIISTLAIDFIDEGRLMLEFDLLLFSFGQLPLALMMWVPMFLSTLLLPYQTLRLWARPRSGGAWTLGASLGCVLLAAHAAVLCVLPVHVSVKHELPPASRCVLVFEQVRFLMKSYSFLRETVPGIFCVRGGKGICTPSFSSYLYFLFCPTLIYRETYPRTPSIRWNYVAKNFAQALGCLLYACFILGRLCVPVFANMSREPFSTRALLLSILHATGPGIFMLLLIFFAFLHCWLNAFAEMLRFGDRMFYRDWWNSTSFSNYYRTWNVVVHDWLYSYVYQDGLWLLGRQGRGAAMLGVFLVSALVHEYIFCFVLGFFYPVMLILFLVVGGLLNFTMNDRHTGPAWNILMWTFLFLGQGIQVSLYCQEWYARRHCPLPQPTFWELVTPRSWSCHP
Briefly: Inhibition of acyl-CoA: cholesterol acyltransferase (ACAT) in hepatic microsomes (in vitro). In kind it is biochemical, rat (male Sprague Dawley). The method, then: A. Assay of the Inhibition of Acyl-CoA: Cholesterol Acyltransferase (ACAT) in Hepatic Microsomes
The ability of the compounds to inhibit ACAT, the enzyme responsible for the intracellular synthesis of cholesteryl esters, was tested as follows. Male Sprague Dawley rats weighing 150-300 g, were fed rat chow ad libitum. The animals were fasted for twenty-four hours prior to being sacrificed by decapitation. The livers were perfused in situ with 50 ml of cold 0.25M sucrose, excised, and homogenized in three volumes of 0.1M phosphate buffer, pH 7.4, that contained 0.5 mM EDTA (ethylenediaminetetraacetic acid), 1.0 mM glutathione, 0.25M sucrose and […]. Microsomes were obtained by differential centrifugation; the supernatant from an initial spin at 15,000×g for 15 minutes was centrifuged at 105,000×g for 1 hour to pellet the microsomes. The microsomes were suspended in homogenization buffer, reisolated by centrifugation, and stored at -70° C. Microsomes were used within one month of preparation.
The control assay in a final volume of 200 μl consisted of 200 μg of microsomal protein, 75 μM ^14 C-oleoyl-CoA (10,000 dpm/nmol) in 0.1M phosphate, pH 7.4, that contained 1 mM glutathione. Compounds were added in 5 μl of DMSO (dimethyl sulfoxide) and additional controls were run with DMSO only. All components, except the oleoyl-CoA, were preincubated for 15 min. at 37° C. prior to the initiation of the reaction by the addition of oleoyl-CoA. The assay was terminated after 10 min by the addition of 4 ml of chloroform:methanol (2:1, v/v). 20,000 dpm of ^3 H-cholesteryl oleate and 10 μg of unlabeled cholesteryl oleate and oleic acid were added as an internal standard and carriers, respectively. After allowing 10 min. for lipid extraction, the samples were centrifuged at 1,000×g for 10 min. to separate the solvent layers. The chloroform layer containing the neutral lipids was spotted onto a Baker SI250-Pa silica gel TLC plate and the plate developed using a hexane: diethyl ether: acetic acid (170:30:1 v/v/v) mobile phase. The lipids were visualized by their interaction with iodine vapor and the cholesteryl ester spot was scraped into a scintillation vial and counted.

Experiment [2] concerns murine macrophage-like cell line J774.A1. Briefly: Inhibition of cholesterol esterification in mammalian cells (macrophage assay). Conditions: J774.A1 macrophages loaded with ac-LDL, 14C-oleic acid; read-out: Cholesterol Esterification IC50. In kind it is cell-based. As to the method:
B. Assay of the Inhibition of Cholesterol Esterification in Mammalian Cells
The esterification of cholesterol was determined in the murine macrophage-like cell line J774.A1. Cells were seeded in 35 mm wells at a density of 300,000 cells per well in 2 mls of Dulbecco's Eagle Medium (DMEM) supplemented with 10% fetal bovine serum (FBS). Cells were incubated at 37° C. in an atmosphere of 5% CO2 and 93% humidity. After 24 hours the media was changed to 0.68 mls 10% FBS-DMEM containing 34 μg of acetylated human low density lipoprotein (ac-LDL) to increase the intracellular concentration of cholesterol and promote esterification. At 41 hours, various inhibitors were added to the cells in DMSO (10 μl/ml maximum). At 43 hours, the cells were pulsed with 0.1 mM ^14 C-oleic acid (10,000 dpm/nmol) complexed with BSA (bovine serum albumin) to follow cholesterol ester formation. The experiment was terminated at 45 hours by washing the monolayers 3 times with 3 ml of Tris-buffered saline at 4° C. The lipids were extracted by incubating the monolayers with 1.5 ml of hexane:isopropanol (3:2, v/v) for 30 min. under gentle agitation. During this period, 10,000 dpm 3H-cholesteryl linoleate and 10 μg of cholesteryl oleate were added as an internal standard and carrier respectively. The organic solvent was removed and the cells were washed with an additional 1.0 ml of hexane: isopropanol which was combined with the original extract. The cells were allowed to dry overnight, digested with 1.5 ml of 0.2N sodium hydroxide for 1 hour and an aliquot of the solubilized protein used for protein determination using the Lowry method. The organic extract was taken to dryness, the residue resuspended in 100 μl of chloroform and the lipids separated on silica gel impregnated glass fiber plates using a hexane:diethylether:acetic acid (170:30:1, v/v/v) solvent system. Individual lipids were visualized with iodine and the cholesteryl ester spot cut out and transferred to scintillation vials to determine the amount of radioactivity. The conversion of oleic acid to cholesteryl ester in the control averaged 0.54 […] and was increased upon the addition of ac-LDL to about 10.69±0.69 […]. […] It should be noted that many of the intermediates had inhibitory activity in the in vitro ACAT assay and in the macrophage assay.

The mark [3] stands for this setting: rat hepatic microsomes, 75 μM 14C-oleoyl-CoA, pH 7.4, 37° C., read-out: In Vitro ACAT IC50.

For the molecule `CCCCCCCN(CCCCCSc1nc(-c2ccccc2)c(-c2ccccc2)[nH]1)C(=O)Nc1ccc(C#N)cc1` [Example 85, N'-(4-cyanophenyl)-N-[5-(4,5-diphenyl-1H-imidazol-2-ylthio)pentyl]-N-heptylurea], the results for the IC50 in experiment [1] (In Vitro ACAT IC50) and in experiment [2] were 0.06 µM and 3.1 µM, respectively.
As for `CCCCCCCCNC(=O)N(CCCCCCC)CCCCCSc1nc(-c2ccccc2)c(-c2ccccc2)[nH]1` [Example 97, N-[5-(4,5-diphenyl-1H-imidazol-2-ylthio)pentyl]-N-heptyl-N'-octylurea], the IC50 in experiment [1] (setting [3]) is 0.025 µM; in experiment [2], 0.7 µM.
Turning to `CCCCCCCN(CCCCCSc1nc(-c2ccccn2)c(-c2ccccn2)[nH]1)C(=O)Nc1ccc(F)cc1F` [Example 107, N-[5-[4,5-bis(2-pyridinyl)-1H-imidazol-2-ylthio]pentyl]-N'-(2,4-difluorophenyl)-N-heptylurea], the IC50 in experiment [1] (setting [3]) stood at 1 µM; in experiment [2], 2.3 µM.
In the same order, the values of `CCCCCCCN(CCCCCSc1nc(-c2cccs2)c(-c2cccs2)[nH]1)C(=O)Nc1ccc(F)cc1F` [Example 110, N-[5-[4,5-bis(2-thienyl)-1H-imidazol-2-ylthio]pentyl]-N'-(2,4-difluorophenyl)-N-heptylurea] are 0.06 µM and 0.9 µM.
Take `CCCCCCCN(CCCCCSc1nc(-c2ccc(F)cc2)c(-c2ccc(F)cc2)[nH]1)C(=O)Nc1ccc(F)cc1F` [Example 114, N-[5-[4,5-bis(4-fluorophenyl)-1H-imidazol-2-ylthio]pentyl]-N'-(2,4-difluorophenyl)-N-heptylurea]: the IC50 is 0.04 µM in experiment [1] (setting [3]) and 3.5 µM in experiment [2].
In the same order, the values of `CCCCCCCN(CCCCCSc1nc(-c2ccc(OC)cc2)c(-c2ccc(OC)cc2)[nH]1)C(=O)Nc1ccc(F)cc1F` [Example 118, N-[5-[4,5-bis(4-methoxyphenyl)-1H-imidazol-2-ylthio]pentyl]-N'-(2,4-difluorophenyl)-N-heptylurea] are 0.17 µM and 0.1 µM.
With `CCCCCCCN(CCCCCSc1nc(-c2ccc(C)cc2)c(-c2ccc(C)cc2)[nH]1)C(=O)Nc1ccc(F)cc1F` [Example 122, N-[5-[4,5-bis(4-methylphenyl)-1H-imidazol-2-ylthio]pentyl]-N'-(2,4-difluorophenyl)-N-heptylurea], the IC50 in experiment [1] (setting [3]) is 0.08 µM; in experiment [2], 0.3 µM.
For `CCCCCCCN(CCCCCSc1nc(-c2ccc(Cl)cc2)c(-c2ccc(Cl)cc2)[nH]1)C(=O)Nc1ccc(F)cc1F` [Example 137], the half-maximal inhibitory concentration (IC50) amounted to 0.076 µM in experiment [1] (setting [3]) and 3.4 µM in experiment [2].
Consider `CCCCCCCN(CCCCCSc1ncc[nH]1)C(=O)Nc1ccc(F)cc1F` [Example 186], for which the IC50 in experiment [1] (setting [3]) came out at 2.85 µM; in experiment [2], 6.2 µM.
Consider `CCCCCCCN(CCCCCSc1nc(C(C)C)c(C(C)C)[nH]1)C(=O)Nc1ccc(F)cc1F` [Example 188, N-[5-[4,5-bis(1-methylethyl)-1H-imidazol-2-ylthio]pentyl]-N'-(2,4-difluorophenyl)-N-heptylurea], for which the IC50 was 0.02 µM in experiment [1] (setting [3]) and 0.9 µM in experiment [2].
Regarding `CCCCCCCN(CCCCCSc1nc(CCC)c(CCC)[nH]1)C(=O)Nc1ccc(F)cc1F` [Example 193, N'-(2,4-difluorophenyl)-N-[5-(4,5-dipropyl-1H-imidazol-2-ylthio)pentyl]-N-heptylurea], the IC50 in experiment [1] (setting [3]) turned out to be 0.06 µM; in experiment [2], 2.7 µM.
`CCCCCCCN(CCCCCSc1nc(-c2ccccn2)c(-c2ccccn2)[nH]1)C(=O)Nc1ccc(F)cc1F` [Example 194]: the results for the IC50 in experiment [1] (setting [3]) and in experiment [2] were 1.9 µM and 4.1 µM, respectively.
For `CCCCCCCN(CCCCCSc1nc(-c2cccc(OC)c2)c(-c2cccc(OC)c2)[nH]1)C(=O)Nc1ccc(F)cc1F` [Example 195, N-[5-[4,5-bis(3-methoxyphenyl)-1H-imidazol-2-ylthio]pentyl]-N'-(2,4-difluorophenyl)-N-heptylurea], in that order: 0.04 µM and 0.4 µM.
For `CCCCCCCN(CCCCCSc1nc(-c2ccccc2OC)c(-c2ccccc2OC)[nH]1)C(=O)Nc1ccc(F)cc1F` [Example 196, N-[5-[4,5-bis(2-methoxyphenyl)-1H-imidazol-2-ylthio]pentyl]-N'-(2,4-difluorophenyl)-N-heptylurea], the IC50 was 0.3 µM in experiment [1] (setting [3]) and 1.4 µM in experiment [2].
`CCCCCCCN(CCCCCSc1nc(-c2ccc(N(C)C)cc2)c(-c2ccc(N(C)C)cc2)[nH]1)C(=O)Nc1ccc(F)cc1F` [Example 197, N-[5-[4,5-bis[4-(dimethylamino)phenyl]-1H-imidazol-2-ylthio]pentyl]-N'-(2,4-difluorophenyl)-N-heptylurea]: the IC50 in experiment [1] (setting [3]) turned out to be 0.119 µM; in experiment [2] it was 0.1 µM.
Consider `CCCCCCCN(CCCCCSc1nc(-c2ccc(N(C)C)cc2)c(-c2ccc(N(C)C)cc2)[nH]1)C(=O)Nc1ccc(F)cc1F` [Example 198], for which the IC50 in experiment [1] (setting [3]) was 0.04 µM; in experiment [2], 0.06 µM.
In the case of `CCCCCCCN(CCCCCSc1nc(C2CCCCC2)c(C2CCCCC2)[nH]1)C(=O)Nc1ccc(F)cc1F` [Example 199, N-[5-(4,5-dicyclohexyl-1H-imidazol-2-ylthio)pentyl]-N'-(2,4-difluorophenyl)-N-heptylurea], the IC50 in experiment [1] (setting [3]) turned out to be 0.02 µM; in experiment [2] it was 0.6 µM.
On to `CCCCCCCN(CCCCCSc1nc(-c2ccccc2)c(-c2ccc(N(C)C)cc2)[nH]1)C(=O)Nc1ccc(F)cc1F` [Example 200], for which the IC50 came out at 0.71 µM in experiment [1] (setting [3]) and 0.8 µM in experiment [2].
For `CCCCCCCN(CCCCCSc1nc(-c2ccco2)c(-c2ccco2)[nH]1)C(=O)Nc1ccc(F)cc1F` [Example 201], the IC50 stood at 0.2 µM in experiment [1] (setting [3]) and 0.5 µM in experiment [2].
For `CCCCCCCN(CCCCCSc1nc(-c2ccc(OC)cc2)c(-c2ccc(OC)cc2)[nH]1)C(=O)NC(C)C` [Example 202, N-[5-[4,5-bis(4-methoxyphenyl)-1H-imidazol-2-ylthio]pentyl]-N-heptyl-N'-(1-methylethyl)urea], in that order: 0.22 µM and 0.004 µM.
In the same order, the values of `COc1ccc(-c2nc(SCCCCCN(C)C(=O)Nc3ccc(F)cc3F)[nH]c2-c2ccc(OC)cc2)cc1` [Example 204] are 0.5 µM and 0.4 µM.
